The source of these data is patent US20200291100A1, “TREATMENT OF AGE-RELATED AND MITOCHONDRIAL DISEASES BY INHIBITION OF HIF-1 ALPHA FUNCTION” (President and Fellows of Harvard College, priority 2012, published 2020).

Type in all cases: cell-based, mouse
Experiment [1] concerns primary PGC-1α/β KO myotubes. The experiment is described as follows: NMN with or without HIF stabilizing compounds in PGC-1α/β KO myotubes, qPCR of mitochondrially-encoded ETC genes. The conditions noted are these: HIF stabilizing compound added to NMN-treated cells; 1 mM DMOG or 10 μM DFO, 12 hours. On the procedure: As a functional test of whether NMN reverses genome asynchrony by depleting cells of HIF-1α, primary PGC-1α/β KO myotubes were incubated with NMN in the presence and absence of the HIF stabilizing compounds DMOG and DFO. […] Primary myoblasts cells were isolated from WT, SIRT1 KO (Price et al., 2012) and PGC-1α/β KO (Zechner et al., 2010) mice as previously described (Price et al., 2012). WT and PGC-1α/β KO primary myoblasts were plated and allowed to differentiate into myotubes by replacing the media with low glucose DMEM supplemented with 2% horse serum (Sigma-Aldrich) for 4 days. After the differentiation the cells were infected with empty vector or flag-SIRT1 adenovirus as described before ([…] al., 2007). Media was replaced with fresh DMEM supplemented with 2% horse serum (Sigma-Aldrich) for an additional 48 hr and, after that the cells were harvested for the different assays as described. […] Quantitative RT-PCR reactions were performed using 1 μM of primers and LightCycler® 480 SYBR Green Master (Roche) on an LightCycler® 480 detection system (Roche). Calculations were performed by a comparative method (2-ΔCT) using 18S as an internal control. For mtDNA analysis, total DNA was extracted with DNeasy blood and tissue kit (Qiagen). mtDNA was amplified using primers specific for the mitochondrial cytochrome c oxidase subunit 2 (COX2) gene and normalized to genomic DNA by amplification of the ribosomal protein s18 (rps18) nuclear gene. Primers were designed using the IDT software (IDT) and the primer sequences can be found in Table 1.
In general terms: Real-time PCR tracks product formation cycle by cycle.

Experiment [2] relates to PGC-1α/β knockout myotubes. The experiment is described as follows: HIF stabilizing compounds in PGC-1α/β knockout myotubes with or without SIRT1 overexpression. The conditions noted are these: SIRT1 adenovirus; 1 mM DMOG or 10 μM DFO, 12 hours. On the procedure:
Next whether the ability of SIRT1 to regulate mitochondrial function independently of PGC-1α/β is mediated by HIF-1α was tested. […] Furthermore, cells expressing a mutant allele of HIF-1α that is constitutively stabilized due to the replacement of the two hydroxylated prolines with alanines (DPA) (FIG. 7A), caused genome asynchrony similar to hypoxia and treatment with DMOG (FIG. 7B).
Primary myoblasts cells were isolated from WT, SIRT1 KO (Price et al., 2012) and PGC-1α/β KO (Zechner et al., 2010) mice as previously described (Price et al., 2012). WT and PGC-1α/β KO primary myoblasts were plated and allowed to differentiate into myotubes by replacing the media with low glucose DMEM supplemented with 2% horse serum (Sigma-Aldrich) for 4 days. After the differentiation the cells were infected with empty vector or flag-SIRT1 adenovirus as described before (Gerhart-Hines et al., 2007). Media was replaced with fresh DMEM supplemented with 2% horse serum (Sigma-Aldrich) for an additional 48 hr and, after that the cells were harvested for the different assays as described. To investigate the role of HIF-1α in genome asynchrony, PGC-1α/β KO primary myotubes were treated for 12 hours with 1 mM DMOG (Sigma) or 10 μM DFO (Sigma), 24 h after infection with empty vector of flag-SIRT1 adenovirus or after 12 h treatment with […] NMN (Sigma).
RNA from skeletal muscle tissue and C2C12 cells were extracted with RNeasy mini kit (Qiagen) according to the instructions and quantified using the NanoDrop 1000 spectrophotometer (Thermo Scientific). cDNA was synthesized with the iSCRIP cDNA synthesis kit (BioRad) using 600 ng of RNA. Quantitative RT-PCR reactions were performed using 1 μM of primers and LightCycler® 480 SYBR Green Master (Roche) on an LightCycler® 480 detection system (Roche). Calculations were performed by a comparative method (2-ΔCT) using 18S as an internal control. For mtDNA analysis, total DNA was extracted with DNeasy blood and tissue kit (Qiagen). mtDNA was amplified using primers specific for the mitochondrial cytochrome c oxidase subunit 2 (COX2) gene and normalized to genomic DNA by amplification of the ribosomal protein s18 (rps18) nuclear gene. […]
Protein extracts from tissue or C2C12 cells were obtained by lysis in ice-cold lysis buffer (150 mM NaCl, 10 mM Tris HCl (pH 7.4), 1 mM EDTA, 1 mM EGTA, 1% Triton X-100, 0.5% NP-40) supplemented with a cocktail of protease and phosphatase inhibitors (Roche). Protein content was determined by the Bradford protein assay (Biorad), and 50 μg proteins were run on SDS-PAGE under reducing conditions. […] The immunostaining was detected using horseradish peroxidase-conjugated anti-rabbit or anti-mouse immunoglobulin for 1 h at room temperature.

Experiment [3] relates to C2C12 cells. Briefly: SIRT1 inhibition with EX-527 in C2C12 cells. The conditions noted are these: 10 μM EX-527, 12 h. On the procedure:
Having shown that HIF-1α stabilization was sufficient to induce genome asynchrony, it was next tested whether it was necessary. […] Knockdown of HIF-1α in C2C12 cells treated with the SIRT1 inhibitor EX-527 prevented genome asynchrony and decline in mitochondrial function, as evidenced by the maintenance of mtDNA content (FIG. 7F), mitochondrial ETC gene expression (FIG. 7G), mitochondrial membrane potential ([…]) and ATP levels (FIG. 7I).
C2C12 cell line (ATCC) was cultured in low glucose Dulbecco's modified eagle medium (DMEM) (Invitrogen) supplemented with 10% FBS (Invitrogen) and a mix of antibiotic and antimycotic (Invitrogen). To inhibit SIRT1, cells were treated the vehicle (0.001% DMSO) or 10 μM EX-527 (Tocris) for 12 h. C2C12 myoblasts were infected with an empty or SIRT1 adenovirus as described before (Gerhart-Hines et al., 2007) and the media was replaced with fresh DMEM for additional 48 h, after that the cells were treated as described before. To test the effects of hypoxia and HIFα stabilization in genome asyncrony, C2C12 myoblasts were exposed to 1% oxygen for 16 h or treated with the vehicle (0.001% DMSO) or DMOG (Cayman) for the same period of time.

Experiment [4] has as its system PGC-1α/β KO myotubes. The experiment is described as follows: EX-527 in PGC-1α/β KO myotubes reconstituted with WT or T177A/S538A PGC-1α, qPCR. The conditions noted are these: EX-527 48 h. The procedure: RNA from skeletal muscle tissue and C2C12 cells were extracted with RNeasy mini kit (Qiagen) according to the instructions and quantified using the NanoDrop 1000 spectrophotometer (Thermo Scientific). cDNA was synthesized with the iSCRIP cDNA synthesis kit (BioRad) using 600 ng of RNA. Quantitative RT-PCR reactions were performed using 1 μM of primers and LightCycler® 480 SYBR Green Master (Roche) on an LightCycler® 480 detection system (Roche). Calculations were performed by a comparative method (2-ΔCT) using 18S as an internal control. For mtDNA analysis, total DNA was extracted with DNeasy blood and tissue kit (Qiagen). mtDNA was amplified using primers specific for the mitochondrial cytochrome c oxidase subunit 2 (COX2) gene and normalized to genomic DNA by amplification of the ribosomal protein s18 (rps18) nuclear gene. Primers were designed using the IDT software (IDT) and the primer sequences can be found in Table 1.
AMPK-DN blocked the decrease in nuclear-encoded genes observed 48 h after treatment with OHT, but not the decline in mitochondrial-encoded genes (FIG. 13G). In order to determine if this AMPK affect is through PGC-1α PGC-1α/β KO myotubes were reconstituted with either a WT PGC-1α or an AMPK insensitive version of PGC-1α (PGC-1α T177A/S538A) (FIG. 20F). […]

For experiment [5], the system named is primary myoblasts. The experiment is described as follows: Lactate treatment of primary WT myoblasts, NAD+/NADH ratio and HIF-1α immunoblot. The conditions noted are these: 10 mM lactate, 24 h. The text has this:
FIGS. 21A-21N provide additional data related to the content of FIG. 14. FIG. 21A depicts HIF-1α target genes (PGK-1, Glut1, PDK1 and Vegfa) expression in gastrocnemius of WT and SIRT1 KO mice. Relative expression values were normalized to WT mice (n=5). FIG. 21B depicts hypoxia response element activity in primary myoblasts isolated from WT and SIRT1 KO mice and treated with or without DMOG. Relative luciferase activity was normalized to WT cells (n=6, *p<0.05 versus WT). FIG. 21C depicts a representative immunoblot of HIF-1a and Tubulin in PGC-1α/β KO myotubes treated with adenovirus overexpressing SIRT1 or empty vector as well as treatment with DMSO or with HIF stabilizing compound DMOG. FIG. 21D depicts NAD+/NADH ration measured in primary WT myoblasts treated with either 10 mM pyruvate, 10 mM lactate or vehicle for 24 h (n=4). […] FIG. 21J depicts mitochondrial DNA content analyzed by qPCR in control, HIF-1α DPA or HIF-2α DPA C2C12 cells treated with adenovirus overexpressing SIRT1 or empty vector. […] FIG. 21K depicts ARNT mRNA analyzed by qPCR in C2C12 cells infected with ARNT or nontargeting shRNA. […] FIG. 21L depicts mitochondrial DNA content analyzed by qPCR in C2C12 cells infected with ARNT or nontargeting shRNA. […] FIG. 21M depicts ND1, Cytb, COX1 and ATP6 mRNA analyzed by qPCR in C2C12 cells infected with ARNT or nontargeting shRNA. […] Values are expressed as mean±SEM. […]
On the technique in general: A western blot detects proteins with antibodies after separation by electrophoresis.

As to `CC(=O)N(O)CCCCCNC(=O)CCC(=O)N(O)CCCCCNC(=O)CCC(=O)N(O)CCCCCN` [DFO, desferrioxamine], the “effect on NMN-induced expression of mitochondrially-encoded ETC genes” value in experiment [1] is given as “completely abolished”. Moreover, the “effect on induction of mitochondrial ETC genes by SIRT1 overexpression” value in experiment [2] is “completely blocked”.

As to `NC(=O)C1CCCc2c1[nH]c1ccc(Cl)cc21` (stereo not shown) [EX-527], the genome asynchrony entry in experiment [3] is “induced”. The “expression of nuclear- and mitochondrial-encoded genes” value in experiment [4] (in the presence of WT PGC-1α) is “decreased both nuclear- and mitochondrial-encoded genes”; in experiment [4] (in the presence of the PGC-1α T177A/S538A mutant), “only the mitochondrial-encoded genes decreased”.

`CC(O)C(=O)O` (stereo not shown) [lactate]: in experiment [5], the “HIF-1α protein (immunoblot)” value is reported as “induces HIF-1α protein stabilization” and the “NAD+/NADH ratio” value is given as “decreasing”.
